Source: patent publication US20250222143A1, “TARGETED RADIOTHERANOSTICS BASED ON POLYAZAMACROCYCLIC, MIXED-DONOR SCAFFOLDS LINKED TO A TARGETING VECTOR” (The Research Foundation for the State University of New York, priority 2021, published 2025)
Several values for one entry are separate records, joined by “and”; a condition that tells them apart may be missing. Identical values can stand only once. Like-named read-outs stand apart in the source and are kept apart here.

Key:
[1] = cited from earlier work
[2] = tested on: PSMA+PC-3 PIP tumors; assay: Single dose radiotherapy study in PC-3 PIP tumor-bearing mice; conditions: single dose 3.7 MBq
Protocol: Twelve-week-old male mice were inoculated subcutaneously on the right shoulder with PSMA+PC-3 PIP cells (0.7×10^6/mouse in 1:2 DPBS pH 7.4: Matrigel). Tumors grew nine days before treatment with an approximate volume of 100 mm^3 at day 0. Three groups of mice (n=6) (cohort A, B, and C) with statistically similar body weights and tumor volumes were injected at day 0 of the therapy study. Group A received saline only. […] Following administration of radioligand or vehicle, the mice were monitored by measuring the tumor size and body weight over 60 days. Mice were euthanized when the predefined end point criteria were reached, or when the study was terminated at day 60. The relative body weight (RBW) was defined as [BWx/BW0], where BWx is the body weight in grams at a given day x and BW0 is the body weight in grams on day 0. The tumor dimension was determined by measuring the longest tumor axis (L) and its perpendicular axis (W) with a digital caliper. The tumor volume (V) was calculated according to the equation [V=0.5×(LW^2)].

[3] = tested on: PSMA+PC3 PIP cells; assay: Cell uptake and internalization; assay type: cell-based
Protocol: The binding and internalization of ^177Lu-(picaga)-HSA and ^177Lu-PSMA-617 was evaluated in PSMA+PC3 PIP cells. In brief, 5×10^5 PC3 PiP cells are suspended, washed and aliquoted. The internalized fraction is determined using ^177Lu-ligand in PC3 PiP cells, with ligands radiolabeled at a specific activity of 0.08 mCi/nmol (3.0 MBq/nmol) and diluted in PBS. […] Subsequently, cell samples were lysed by addition of NaOH (1 M, 1 mL) to release cellular contents and internalized ^177Lu-(picaga)-HSA. Radioactive counts are quantitated separately using a gamma well counter, with each incubation conducted in triplicate.

[4] = Dose formulation stability of ^177Lu-radiolabeled ligands by radio-HPLC; assay type: physicochemical; conditions: DMSO:NH4OAc:phosphate buffered saline, room temperature
Protocol: The stability for ^177Lu-radiolabeled ligands was evaluated by radio-HPLC for radiolytic degradation and decomplexation at relevant time points concentrations for dose preparation, storage, and administration. (picaga)-HSA was radiolabeled as previously described at a specific activity of 0.08 mCi/nmol (3.0 MBq/nmol) and diluted in PBS. A 0.1 mL aliquot was removed, stored at room temperature, and tested for stability by radio-HPLC. The activity concentration at t=0 was 0.12 mCi in 0.1 mL.
Under the same conditions, ^177Lu-PSMA-617 was determined to be 80% intact.

[5] = Whole body activity clearance (dose calibrator); set-up: species or system mice; conditions: mouse, in vivo
Protocol: Whole body activity was measured by placing each mouse into a dose-calibrator. % Remaining activity was given by =[At/At=0] where At is the decay-corrected whole body activity at time t and At-0 is the total activity measured by dose calibrator p.i. The data were fit to a one-phase decay curve in GraphPad Prism and the biological decay constant K was calculated to be K=0.005638 h^−1 for ^177Lu-(picaga)-HSA and K=0.1415 h^−1 for ^177Lu-PSMA-617.
To approximate clearance of the ^177Lu-constructs, therapy cohort treated with ^177Lu-(picaga)-HSA and ^177Lu-PSMA-617 were monitored for residual whole-body activity remaining in the mouse. The whole-body activity remaining was plotted and the biological half-life in PSMA+tumor-bearing mice was determined using nonlinear regression in Graph Pad Prism (FIG. 16; Table 5). […] This is attributable to both the longer blood half-life because of the HSA-binding functionality and to the enhanced tumor uptake afforded by the longer blood circulation.

[6] = tested on: PSMA + and PSMA − tumors; conditions: previous work, 2 h post-injection, n = 4, cited from earlier work
[7] = molecular target: T1, human serum albumin (Homo sapiens, UniProt P02768); assay: Binding to human serum albumin (ultrafiltration, Lu in filtrate by ICP-OES)
Protocol: (§1) To measure HSA binding of the complexes, a 0.1 mM solution (determined by ICP-OES) of the corresponding ^natLu complex in 4.5% w/v HSA was prepared and pipetted into an Amicon Ultra-0.5 Centrifugal Filter Unit (50 KDa cutoff, Millipore, UFC500396). The mixture was incubated at 37° C. for 15 min and subsequently centrifuged at 12000 rpm for 10 min. Binding is determined by measurement of Lu content in the filtrate by ICP-OES and compared to non-specific binding to the filter in absence of HSA.
(§2) To this end, each ligand was incubated at 37° C. for 15 minutes in PBS with or without 4.5% human serum albumin to simulate in vivo protein concentration. Each mixture was filtered through a 50 KDa MW cutoff filter and the ^natLu content of the filtrate was measured by ICP-OES. ^natLu-mpaten was used as a chelator-only control with no targeting functionality and thus no expected interaction with human serum albumin.

[8] = molecular target: T2, PSMA (Homo sapiens, UniProt Q04609); assay: Displacement assay against ^99mTc(CO)3-MIP-1427 for binding affinity to PSMA; conditions: displacement of ^99mTc-MIP-1427, DCFPyL as internal reference; read-out: affinity (Ki) to the PSMA target
Protocol: Stock solutions of Lu-(picaga)-HSA in (DMSO: H2O, 1:5) were prepared and concentrations were determined by ICP-OES in accordance with previously published method.
The Ki was determined by nonlinear regression analysis using GraphPad Prism software.
Prior to the assessment of the ^177Lu-labeled compounds, binding affinity to the biological target PSMA was evaluated.

[9] = Formulation stability of [Sc-^18F(picaga-DUPA)]^- by radioHPLC; assay type: physicochemical
Protocol: The stability of [Sc-^18F(picaga-DUPA)]^− in both DPBS and saline was evaluated for up to 4 h. It was determined that [Sc-^18F(picaga-DUPA)]^− was stable in both DPBS and saline for at least 4 h (FIG. 7A, B).
The [^18F]KF stock solution was prepared as previously described (39.4 mCi, 693 μL, pH 2.5). The Sc-^18F precursor was formed via direct addition of 200 μL 0.25 M ammonium acetate (pH 4.1) buffer and 20 nmol ScCl3 stock (0.25 eq.) to the [^18F]KF stock. Following incubation at room temperature for 10 minutes, 79.8 nmol picaga-DUPA (1 eq.) was added to 400 μL of the Sc-^18F precursor stock solution (13.11 mCi), then incubated at 100° C. for 25 minutes. The major [^18F]Sc—F(picaga)-DUPA species was separated the minor isomer and Sc-^18F via analytical radioHPLC (Method C). (FIG. 34) Purified [^18F]Sc—F(picaga)-DUPA complex was concentrated to dryness under reduced pressure and formulated for injection in DPBS (2.11 mCi, 550 μL). Dose formulation stability was analyzed at 0 and 4 hours (FIG. 34A), before and after in vivo experiments, via radioHPLC (Method C). Apparent molar activity: 164 mCi/μmol.

[10] = molecular target: T2, PSMA; conditions: value taken from literature; cited from earlier work
[11] = molecular target: T1, human serum albumin; conditions: 15 min, 0.1 mM
Protocol: as §1, §2

[12] = tested on: PSMA+PC-3 PIP tumors; assay: Pilot therapy study with ^177Lu-picaga-DUPA; conditions: 3.3 MBq, n = 4, 14 days
Protocol: Twelve-week-old male mice were inoculated subcutaneously on the right shoulder with PSMA+PC-3 PIP cells (0.7×10^5/mouse in 1:1 DPBS pH 7.4: Matrigel). Tumors grew nine days before treatment with an approximate volume of 100 mm^3 at day 0. One group of mice (n=4) (cohort D) with statistically similar body weights and tumor volumes were injected at day 0 of the therapy study. Group D received 3.3 MBq of the radioligand via tail vein injection (^177Lu-picaga-DUPA). Following administration of radioligand, the mice were monitored by measuring the tumor size and body weight over 14 days. Mice were euthanized when the predefined end point criteria were reached, or when the study was terminated at day 14. The relative body weight (RBW) was defined as [BWx/BW0], where BWx is the body weight in grams at a given day x and BW0 is the body weight in grams on day 0. The tumor dimension was determined by measuring the longest tumor axis (L) and its perpendicular axis (W) with a digital caliper. The tumor volume (V) was calculated according to the equation [V=0.5×(LW^2)]. The relative tumor volume (RTV) was defined as [TVx/TV0], where TVz is the tumor volume in mm^3 at a given day x, and TV0 is the tumor volume in mm^3 at day 0.

[13] = Spectrophotometric pH-dependent titration (complex formation pKa, speciation); assay type: physicochemical
Text: As was previously shown, radiolabeling of Lu-177 with L1 is not feasible at room temperature, in part due to the comparatively high formation pKa of the [Lu(L1)] coordination complex (pH 2.4) (Vaughn, B. A. et al. 2021).

T1 sequence (P02768 25-609): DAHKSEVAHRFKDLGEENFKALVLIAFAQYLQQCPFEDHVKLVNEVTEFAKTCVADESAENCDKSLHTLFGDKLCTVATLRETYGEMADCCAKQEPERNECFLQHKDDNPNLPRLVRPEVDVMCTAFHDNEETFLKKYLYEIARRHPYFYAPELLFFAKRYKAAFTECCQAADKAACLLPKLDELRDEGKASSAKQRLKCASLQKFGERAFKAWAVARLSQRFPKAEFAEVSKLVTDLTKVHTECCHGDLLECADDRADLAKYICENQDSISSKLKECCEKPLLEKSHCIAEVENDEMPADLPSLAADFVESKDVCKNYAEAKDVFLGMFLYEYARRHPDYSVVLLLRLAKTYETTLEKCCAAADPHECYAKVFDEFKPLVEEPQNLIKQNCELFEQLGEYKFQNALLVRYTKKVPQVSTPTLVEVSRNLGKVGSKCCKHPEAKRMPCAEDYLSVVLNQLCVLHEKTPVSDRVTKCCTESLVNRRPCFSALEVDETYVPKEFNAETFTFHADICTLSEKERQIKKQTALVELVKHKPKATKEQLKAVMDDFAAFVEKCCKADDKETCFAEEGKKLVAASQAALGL
T2 sequence (Q04609 whole entry): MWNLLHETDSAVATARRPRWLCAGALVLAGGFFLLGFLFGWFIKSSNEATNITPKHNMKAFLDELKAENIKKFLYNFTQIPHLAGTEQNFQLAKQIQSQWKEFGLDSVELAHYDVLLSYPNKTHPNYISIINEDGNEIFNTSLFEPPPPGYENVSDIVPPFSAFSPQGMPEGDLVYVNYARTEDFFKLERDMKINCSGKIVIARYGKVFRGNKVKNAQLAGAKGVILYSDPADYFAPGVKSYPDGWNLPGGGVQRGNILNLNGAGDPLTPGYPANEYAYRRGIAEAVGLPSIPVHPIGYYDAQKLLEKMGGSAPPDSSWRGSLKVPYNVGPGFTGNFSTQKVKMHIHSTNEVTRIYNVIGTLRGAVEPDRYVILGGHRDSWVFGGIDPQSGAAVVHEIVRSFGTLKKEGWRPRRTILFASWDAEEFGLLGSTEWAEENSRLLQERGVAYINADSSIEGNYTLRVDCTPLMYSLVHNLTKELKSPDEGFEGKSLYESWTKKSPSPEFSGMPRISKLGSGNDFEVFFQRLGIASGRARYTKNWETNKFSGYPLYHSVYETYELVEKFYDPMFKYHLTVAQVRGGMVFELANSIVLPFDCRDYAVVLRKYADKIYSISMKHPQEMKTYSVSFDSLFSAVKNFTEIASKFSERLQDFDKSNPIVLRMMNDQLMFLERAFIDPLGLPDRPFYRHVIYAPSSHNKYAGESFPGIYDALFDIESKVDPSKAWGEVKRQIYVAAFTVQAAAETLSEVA

O=C([O-])CN1CCNCCN(CC(=O)[O-])CC1.[Al+3].[OH-] [[(Al(NO2A)(OH)], reference compound]
pH at which hydroxide complex can form ([1]; literature): < 5

O=C([O-])CN1CCN(CC(=O)[O-])CCN(CC(=O)NCC2CCC(C(=O)N[C@@H](Cc3ccc4ccccc4c3)C(=O)NCCCC[C@H](NC(=O)N[C@@H](CCC(=O)O)C(=O)O)C(=O)O)CC2)CCN(CC(=O)[O-])CC1.[177Lu+3] (stereo partly drawn) [^177Lu-PSMA-617, reference compound]
relative body weight during therapy study [2]: dropped during the study | tumor growth / survival compared to control cohort ([2]; PC-3 PIP tumor-bearing mice): marginally enhanced survival and delayed tumor growth | median survival ([2]; PC-3 PIP tumor-bearing mice, study to day 60): 21 days | % Internalization 2 h ([3]; 2 h): 33.53±1.40% and 33.53% | % Uptake 2 h ([3]; 2 h): 6.36±0.43% and 6.36% | % Internalization 4 h ([3]; 4 h): 36.11±2.93% and 36.11% | % Uptake 4 h ([3]; 4 h): 6.15±0.21% and 6.15% | % Internalization 24 h ([3]; 24 h): 50.93±2.14% and 50.93% | % Uptake 24 h ([3]; 24 h): 9.60±0.11% and 9.60% | % Uptake Blocking ([3]; blocking with unlabeled glu-urea-glu PSMA targeting molecule): 0.45±0.03% and 0.45% | complex stability in dose formulation, 4 h ([4]; 4 h): >99% | complex stability in dose formulation, 24 h ([4]; 24 h): >99% | complex stability in dose formulation, 48 h ([4]; 48 h): >99% | complex stability in dose formulation, 14 d (% intact) ([4]; 14 d): 80% | biological decay constant K [5]: 0.1415 h^−1 | biological half-life t1/2 [5]: 4.9 h | % activity remaining in whole body p.i., 0 h ([5]; 0 h): 100.00 ± 0.00% | % activity remaining in whole body p.i., 24 h ([5]; 24 h): 3.35 ± 0.16%

O=C([O-])CN1CCN(CC(=O)[O-])CCN(Cc2cccc(C(=O)[O-])n2)CC1.[Lu+3] [[Lu(L1)]]
complex formation pKa (pH of first complex species) ([1]; previously shown (Vaughn, B. A. et al. 2021)): 2.4

O=C([O-])CN1CCN(Cc2cccc(C(=O)[O-])n2)CCN(C(CCC(=O)NCCCCCNC(=O)CCC(NC(=O)NC(CCC(=O)O)C(=O)O)C(=O)O)C(=O)[O-])CC1.[47Sc+3] (stereo not drawn) [^47Sc(picaga)-DUPA]
Blood 2 h ([6]; Blood): 0.19 ± 0.14 % ID/g | Bone 2 h ([6]; Bone): 0.12 ± 0.06 % ID/g | Heart 2 h ([6]; Heart): 0.11 ± 0.03 % ID/g | Kidney 2 h ([6]; Kidney): 7.13 ± 3.73 % ID/g | Liver 2 h ([6]; Liver): 1.22 ± 1.88 % ID/g | Muscle 2 h ([6]; Muscle): 0.08 ± 0.03 % ID/g | PSMA + Tumor 2 h ([6]; PSMA + Tumor): 12.74 ± 2.87 % ID/g | PSMA − Tumor 2 h ([6]; PSMA − Tumor): 0.77 ± 1.11 % ID/g | Sm. Int. 2 h ([6]; Sm. Int.): 0.18 ± 0.07 % ID/g | Spleen 2 h ([6]; Spleen): 0.24 ± 0.10 % ID/g

O=C([O-])CN1CCN(CC(=O)[O-])CCN(Cc2cccc(C(=O)[O-])n2)CC1.[OH-].[Sc+3] [[Sc(mpatcn)(OH)]^−]
pKa of hydroxide complex ([1]; deprotonation of Sc-bound inner sphere water, literature): 9.1

O=C([O-])CN1CCN(Cc2cccc(C(=O)[O-])n2)CCN(C(CCC(=O)NC(CCCCNC(=O)CCCc2ccc(I)cc2)C(=O)NCC2CCC(C(=O)NC(Cc3ccc4ccccc4c3)C(=O)NCCCCC(NC(=O)NC(CCC(=O)O)C(=O)O)C(=O)O)CC2)C(=O)[O-])CC1.[Lu+3] (stereo not drawn) [^natLu-(picaga)-HSA]
binding to HSA compared to PBS ([7]; 0.1 mM ^natLu complex, 4.5% HSA in PBS, 37° C., 15 min, 50 KDa filter): 80±3.3% | Ki [8]: 1.4 ± 0.6 nM

O=C([O-])CN1CCN(Cc2cccc(C(=O)[O-])n2)CCN(C(CCC(=O)NCCCCCNC(=O)CCC(NC(=O)NC(CCC(=O)O)C(=O)O)C(=O)O)C(=O)[O-])CC1.[18F-].[Sc+3] (stereo not drawn) [Sc-^18F(picaga)-DUPA]
stability in DPBS ([9]; DPBS, evaluated for up to 4 h): at least 4 h | radioHPLC after purification and storage in PBS for 4 hours [9]: no detectable decomposition even after 4 hours | radioHPLC after purification and storage in PBS for 4 hours ([9]; listed as [^18F]Sc—F(picaga)-DUPA): No degradation or defluorination is observed | stability in saline ([9]; saline, evaluated for up to 4 h): at least 4 h

O=C(O)CC[C@H](NC(=O)N[C@@H](CCCCNC(=O)[C@H](Cc1ccc2ccccc2c1)NC(=O)[C@H]1CC[C@H](CNC(=O)CN2CCN(CC(=O)O)CCN(CC(=O)O)CCN(CC(=O)O)CC2)CC1)C(=O)O)C(=O)O [PSMA-617]
Ki [10]: 6.9 ± 1.3 nM | binding to HSA compared to PBS [11]: 55±1.2%

O=C([O-])CN1CCN(Cc2cccc(C(=O)[O-])n2)CCN(C(CCC(=O)NCCCCCNC(=O)CCC(NC(=O)NC(CCC(=O)O)C(=O)O)C(=O)O)C(=O)[O-])CC1.[177Lu+3] (stereo not drawn) [^177Lu-picaga-DUPA]
delay in tumor growth (pilot data) [12]: delay in tumor growth for ^177Lu-PSMA-617 was similar to the delay observed in our pilot data

O=C([O-])CN1CCN(CC(=O)[O-])CCN(Cc2cccc(C(=O)[O-])n2)CC1.[Lu+3] [Lu-mpaten]
difference in compound in the filtrate with or without HSA ([7]; 4.5% HSA in PBS vs PBS, chelator-only control): no significant difference

O=C([O-])CN1CCN(CC(=O)[O-])CCN(Cc2cccc(P(=O)([O-])[O-])n2)CC1.[Lu+3] [[Lu(L2)]]
complex formation pKa (pH of first complex species) [13]: 0.9
